# According to PMC5218480 (PLoS ONE, 2017):
# Test system: MV-4-11 cells
# Experiment: Gene expression microarray analysis (Affymetrix PrimeView) and GSEA
# Assay type: cell-based, human
# Set-up: RFU PODN (11730768_x_at) / Fold change /veh PODN (11730768_x_at) / RFU LINC00158 (11744669_a_at) / Fold change /veh LINC00158 (11744669_a_at) / RFU DUSP10 (11751237_a_at) / Fold change /veh DUSP10 (11751237_a_at) / RFU ID3 (11757404_x_at) / Fold change /veh ID3 (11757404_x_at) / RFU PLEKHG5 (11737974_s_at) / Fold change /veh PLEKHG5 (11737974_s_at) / RFU LRRC4B (11730491_at) / Fold change /veh LRRC4B (11730491_at) / RFU GIMAP4 (11747438_a_at) / Fold change /veh GIMAP4 (11747438_a_at) / RFU KRT8 (11758183_x_at) / Fold change /veh KRT8 (11758183_x_at) / RFU CNN1 (11734310_a_at) / Fold change /veh CNN1 (11734310_a_at) / RFU VPS37D (11726825_at) / Fold change /veh VPS37D (11726825_at) / RFU C10orf10 (11716522_x_at) / Fold change /veh C10orf10 (11716522_x_at) / RFU KIR2DL2 /// KIR2DL4 /// KIR2DL5A /// KIR2DL5B /// KIR2DS1 /// KIR2DS2 /// KIR2DS3 /// KIR2DS4 /// KIR3DL3 /// KIR3DL3 /// KIR3DS1 (11738374_at) / Fold change /veh KIR2DL2 /// KIR2DL4 /// KIR2DL5A /// KIR2DL5B /// KIR2DS1 /// KIR2DS2 /// KIR2DS3 /// KIR2DS4 /// KIR3DL3 /// KIR3DL3 /// KIR3DS1 (11738374_at) / RFU C1QL1 (11718748_at) / Fold change /veh C1QL1 (11718748_at) / RFU TMPRSS4 (11747572_a_at) / Fold change /veh TMPRSS4 (11747572_a_at) / RFU HAMP (11756126_x_at) / Fold change /veh HAMP (11756126_x_at) / RFU RNFT2 (11725882_a_at) / Fold change /veh RNFT2 (11725882_a_at) / RFU NR4A2 (11747474_a_at) / Fold change /veh NR4A2 (11747474_a_at) / RFU ABCC12 (11746883_a_at) / Fold change /veh ABCC12 (11746883_a_at) / RFU TMEM136 (11760407_x_at) / Fold change /veh TMEM136 (11760407_x_at) / RFU CLDN22 /// WWC2 (11732394_at) / Fold change /veh CLDN22 /// WWC2 (11732394_at) / RFU HLA-DPB1 (11760878_x_at) / Fold change /veh HLA-DPB1 (11760878_x_at) / RFU SPINT1 (11716480_a_at) / Fold change /veh SPINT1 (11716480_a_at) / RFU GAP43 (11754022_s_at) / Fold change /veh GAP43 (11754022_s_at) / RFU A4GNT (11735810_at) / Fold change /veh A4GNT (11735810_at) / RFU PRB3 (11715151_x_at) / Fold change /veh PRB3 (11715151_x_at) / RFU TUBB4B (11761932_at) / Fold change /veh TUBB4B (11761932_at) / RFU CAPN14 (11732068_a_at) / Fold change /veh CAPN14 (11732068_a_at) / RFU TMCC2 (11721928_a_at) / Fold change /veh TMCC2 (11721928_a_at) / RFU IRGQ (11745062_a_at) / Fold change /veh IRGQ (11745062_a_at) / RFU FAM174B (11720279_a_at) / Fold change /veh FAM174B (11720279_a_at) / RFU TMPRSS4 (11748680_a_at) / Fold change /veh TMPRSS4 (11748680_a_at) / RFU FAM212B (11763350_a_at) / Fold change /veh FAM212B (11763350_a_at) / RFU PLEKHG5 (11743358_a_at) / Fold change /veh PLEKHG5 (11743358_a_at) / RFU ZSCAN30 (11745921_a_at) / Fold change /veh ZSCAN30 (11745921_a_at) / RFU CMKLR1 (11741424_a_at) / Fold change /veh CMKLR1 (11741424_a_at) / RFU LOC101060620 /// MAPK8IP1 (11723275_at) / Fold change /veh LOC101060620 /// MAPK8IP1 (11723275_at) / RFU SPTSSB (11747773_x_at) / Fold change /veh SPTSSB (11747773_x_at) / RFU PRSS12 (11739890_at) / Fold change /veh PRSS12 (11739890_at) / RFU BIN1 (11741810_x_at) / Fold change /veh BIN1 (11741810_x_at) / RFU WNT11 (11732464_a_at) / Fold change /veh WNT11 (11732464_a_at) / RFU C10orf10 (11716521_a_at) / Fold change /veh C10orf10 (11716521_a_at) / RFU C5orf56 (11738089_at) / Fold change /veh C5orf56 (11738089_at) / RFU CYB561 (11721691_x_at) / Fold change /veh CYB561 (11721691_x_at) / RFU ANKRD19P (11752326_a_at) / Fold change /veh ANKRD19P (11752326_a_at) / RFU OR2T12 /// OR2T33 /// OR2T8 (11738714_s_at) / Fold change /veh OR2T12 /// OR2T33 /// OR2T8 (11738714_s_at) / RFU VCAN (11748164_a_at) / Fold change /veh VCAN (11748164_a_at) / RFU JSRP1 (11732532_at) / Fold change /veh JSRP1 (11732532_at) / RFU KRTAP10-11 (11738290_x_at) / Fold change /veh KRTAP10-11 (11738290_x_at) / RFU MYO3A (11730013_a_at) / Fold change /veh MYO3A (11730013_a_at) / RFU EBF3 (11725865_a_at) / Fold change /veh EBF3 (11725865_a_at) / RFU CAMK2N1 (11719241_x_at) / Fold change /veh CAMK2N1 (11719241_x_at) / RFU C5orf56 (11738088_a_at) / Fold change /veh C5orf56 (11738088_a_at) / RFU OLFML3 (11715873_a_at) / Fold change /veh OLFML3 (11715873_a_at) / RFU LOC100653217 /// NTM (11731650_a_at) / Fold change /veh LOC100653217 /// NTM (11731650_a_at) / RFU MAPK11 (11762145_a_at) / Fold change /veh MAPK11 (11762145_a_at) / RFU FIZ1 (11724087_x_at) / Fold change /veh FIZ1 (11724087_x_at) / RFU OASL (11726364_x_at) / Fold change /veh OASL (11726364_x_at) / RFU SOX15 (11748057_x_at) / Fold change /veh SOX15 (11748057_x_at) / RFU CD79A (11719716_a_at) / Fold change /veh CD79A (11719716_a_at) / RFU HIST1H1D (11736915_at) / Fold change /veh HIST1H1D (11736915_at) / RFU CASKIN2 (11723855_a_at) / Fold change /veh CASKIN2 (11723855_a_at) / RFU LOC730098 (11760151_x_at) / Fold change /veh LOC730098 (11760151_x_at) / RFU OR4N2 (11742367_at) / Fold change /veh OR4N2 (11742367_at) / RFU PRRT2 (11749266_a_at) / Fold change /veh PRRT2 (11749266_a_at) / RFU SNX32 (11753110_a_at) / Fold change /veh SNX32 (11753110_a_at) / RFU CDHR5 (11726645_a_at) / Fold change /veh CDHR5 (11726645_a_at) / RFU RCAN1 (11760418_a_at) / Fold change /veh RCAN1 (11760418_a_at) / RFU FAM167A (11723789_a_at) / Fold change /veh FAM167A (11723789_a_at) / RFU FAM26E (11764081_at) / Fold change /veh FAM26E (11764081_at) / RFU ISYNA1 (11749810_s_at) / Fold change /veh ISYNA1 (11749810_s_at) / RFU ACY1 (11761880_at) / Fold change /veh ACY1 (11761880_at) / RFU 11764098_at / Fold change /veh 11764098_at / RFU SAMD14 (11745864_x_at) / Fold change /veh SAMD14 (11745864_x_at) / RFU NPB (11741838_a_at) / Fold change /veh NPB (11741838_a_at) / RFU TMPRSS6 (11731388_a_at) / Fold change /veh TMPRSS6 (11731388_a_at) / RFU KRTAP10-2 (11738614_at) / Fold change /veh KRTAP10-2 (11738614_at) / RFU ARHGAP8 /// PRR5-ARHGAP8 (11727945_x_at) / Fold change /veh ARHGAP8 /// PRR5-ARHGAP8 (11727945_x_at) / RFU KRTAP5-7 /// NADSYN1 (11734609_at) / Fold change /veh KRTAP5-7 /// NADSYN1 (11734609_at) / RFU RASL12 (11751679_a_at) / Fold change /veh RASL12 (11751679_a_at) / RFU CDKN2B (11736163_a_at) / Fold change /veh CDKN2B (11736163_a_at) / RFU PRF1 (11729649_at) / Fold change /veh PRF1 (11729649_at) / RFU, ZNF638 /// ZNF638-IT1 / Fold change vs veh, ZNF638 /// ZNF638-IT1 / RFU, PANK3 / Fold change vs veh, PANK3 / RFU, SH3YL1 / Fold change vs veh, SH3YL1 / RFU, ZEB2 / Fold change vs veh, ZEB2 / RFU, NRIP1 / Fold change vs veh, NRIP1 / RFU, PTTG1IP / Fold change vs veh, PTTG1IP / RFU, CAPN2 / Fold change vs veh, CAPN2 / RFU, MED14 / Fold change vs veh, MED14 / RFU, SNORA58 / Fold change vs veh, SNORA58 / RFU, C1orf63 / Fold change vs veh, C1orf63 / RFU, LRRFIP1 / Fold change vs veh, LRRFIP1 / RFU, NDUFAF7 / Fold change vs veh, NDUFAF7 / RFU, SLC12A2 / Fold change vs veh, SLC12A2 / RFU, IBTK / Fold change vs veh, IBTK / RFU, ESF1 / Fold change vs veh, ESF1 / Fold change vs veh, TMEM50B / RFU, TAOK1 / Fold change vs veh, TAOK1 / RFU, ACBD3 / Fold change vs veh, ACBD3 / RFU, TMA16 / Fold change vs veh, TMA16 / RFU, RWDD3 / Fold change vs veh, RWDD3 / RFU, BCAT1 / Fold change vs veh, BCAT1 / RFU, EDEM3 / Fold change vs veh, EDEM3 / RFU, TMEM33 / Fold change vs veh, TMEM33 / RFU, WDR75 / Fold change vs veh, WDR75 / RFU, AHCTF1 / Fold change vs veh, AHCTF1 / RFU, TFRC / Fold change vs veh, TFRC / RFU, ZDHHC17 / Fold change vs veh, ZDHHC17 / RFU, NOM1 / Fold change vs veh, NOM1 / RFU, ARL8B / Fold change vs veh, ARL8B / RFU, ZBTB11 / Fold change vs veh, ZBTB11 / RFU, TAMM41 / Fold change vs veh, TAMM41 / RFU, KIAA1704 /// LOC100996395 / Fold change vs veh, KIAA1704 /// LOC100996395 / RFU, ING1 / Fold change vs veh, ING1 / RFU, TRMT61B / Fold change vs veh, TRMT61B / RFU, FUBP3 / Fold change vs veh, FUBP3 / RFU, TP53 / Fold change vs veh, TP53 / RFU, TNKS2 / Fold change vs veh, TNKS2 / RFU, ZFP14 / Fold change vs veh, ZFP14 / RFU, ACTR2 / Fold change vs veh, ACTR2 / RFU, PPP3R1 / Fold change vs veh, PPP3R1 / RFU, PIK3R1 / Fold change vs veh, PIK3R1 / RFU, HNRNPA1 / Fold change vs veh, HNRNPA1 / RFU, RNF170 / Fold change vs veh, RNF170 / RFU, ZNF28 / Fold change vs veh, ZNF28 / RFU, RNGTT / Fold change vs veh, RNGTT / RFU, OGT / Fold change vs veh, OGT / RFU, BRD1 / Fold change vs veh, BRD1 / RFU, MARS / Fold change vs veh, MARS / RFU, ZNF655 / Fold change vs veh, ZNF655 / RFU, FAHD1 / Fold change vs veh, FAHD1 / RFU, BDP1 / Fold change vs veh, BDP1 / RFU, LRRCC1 / Fold change vs veh, LRRCC1 / RFU, ARID1A / Fold change vs veh, ARID1A / RFU, ZNF146 / Fold change vs veh, ZNF146 / RFU, ZNF330 / Fold change vs veh, ZNF330 / RFU, GPN3 / Fold change vs veh, GPN3 / RFU, C9orf123 / Fold change vs veh, C9orf123 / RFU, N4BP2L2 / Fold change vs veh, N4BP2L2 / RFU, ARFIP1 / Fold change vs veh, ARFIP1 / RFU, FAM179B / Fold change vs veh, FAM179B / RFU, BCL10 / Fold change vs veh, BCL10 / RFU, UHRF1BP1L / Fold change vs veh, UHRF1BP1L / RFU, BET1 / Fold change vs veh, BET1 / RFU, CNOT2 / Fold change vs veh, CNOT2 / RFU, ZNF268 / Fold change vs veh, ZNF268 / Fold change vs veh, ZNF507 / RFU, DGCR2 / Fold change vs veh, DGCR2 / RFU, WDSUB1 / Fold change vs veh, WDSUB1 / Fold change vs veh, HSP90B1 /// MIR3652 / RFU, ADSS / Fold change vs veh, ADSS / RFU, GK / Fold change vs veh, GK / RFU, ZNF148 / Fold change vs veh, ZNF148 / RFU, TAF9 / Fold change vs veh, TAF9 / RFU, SLC1A5 / Fold change vs veh, SLC1A5 / RFU, SLMO2 / Fold change vs veh, SLMO2 / RFU, ABCC4 / Fold change vs veh, ABCC4 / RFU, LOC101060439 /// RAP1B / Fold change vs veh, LOC101060439 /// RAP1B / RFU, RFX7 / Fold change vs veh, RFX7 / RFU, GTPBP10 / Fold change vs veh, GTPBP10 / RFU, CNEP1R1 / Fold change vs veh, CNEP1R1 / RFU, BIVM-ERCC5 /// ERCC5 / Fold change vs veh, BIVM-ERCC5 /// ERCC5 / RFU, ILF3 / Fold change vs veh, ILF3 / RFU 11762660_at / Fold change /veh 11762660_at / RFU VCAN (11757783_s_at) / Fold change /veh VCAN (11757783_s_at) / RFU DDX43 (11728927_at) / Fold change /veh DDX43 (11728927_at) / RFU KRT8 (11758188_x_at) / Fold change /veh KRT8 (11758188_x_at) / RFU NKD1 (11759106_at) / Fold change /veh NKD1 (11759106_at) / RFU SRD5A1 (11742802_a_at) / Fold change /veh SRD5A1 (11742802_a_at) / RFU TPSAB1 /// TPSB2 (11721975_s_at) / Fold change /veh TPSAB1 /// TPSB2 (11721975_s_at) / RFU GSTM3 (11746129_a_at) / Fold change /veh GSTM3 (11746129_a_at) / RFU IL23R (11737362_x_at) / Fold change /veh IL23R (11737362_x_at) / RFU TMEM51 (11727254_a_at) / Fold change /veh TMEM51 (11727254_a_at) / RFU PIWIL2 (11732686_x_at) / Fold change /veh PIWIL2 (11732686_x_at) / RFU ORM1 (11744905_x_at) / Fold change /veh ORM1 (11744905_x_at) / RFU CCDC152 (11743942_at) / Fold change /veh CCDC152 (11743942_at) / RFU ECM1 (11717891_a_at) / Fold change /veh ECM1 (11717891_a_at) / RFU IL23R (11748794_a_at) / Fold change /veh IL23R (11748794_a_at) / RFU TNFAIP8L3 (11732012_x_at) / Fold change /veh TNFAIP8L3 (11732012_x_at) / RFU MBOAT4 (11741988_at) / Fold change /veh MBOAT4 (11741988_at) / RFU 11764193_at / Fold change /veh 11764193_at / RFU TMEM53 (11763286_at) / Fold change /veh TMEM53 (11763286_at) / RFU MAGEB2 (11727129_at) / Fold change /veh MAGEB2 (11727129_at) / RFU TMEM200A (11744735_a_at) / Fold change /veh TMEM200A (11744735_a_at) / RFU CCDC152 (11751479_a_at) / Fold change /veh CCDC152 (11751479_a_at) / RFU FAM211A (11726209_a_at) / Fold change /veh FAM211A (11726209_a_at) / RFU RGS16 (11746705_a_at) / Fold change /veh RGS16 (11746705_a_at) / RFU VCAN (11755009_s_at) / Fold change /veh VCAN (11755009_s_at) / RFU RHOB (11743442_s_at) / Fold change /veh RHOB (11743442_s_at) / RFU RGS16 (11720943_a_at) / Fold change /veh RGS16 (11720943_a_at) / RFU RGS16 (11720944_at) / Fold change /veh RGS16 (11720944_at) / RFU, VPS4B / Fold change vs veh, VPS4B / RFU, CREB1 / Fold change vs veh, CREB1 / RFU, DNAJC13 / Fold change vs veh, DNAJC13 / RFU, GNAQ / Fold change vs veh, GNAQ / RFU, CDK5R1 / Fold change vs veh, CDK5R1 / RFU, ZRANB3 / Fold change vs veh, ZRANB3 / RFU, CUL4A / Fold change vs veh, CUL4A / RFU, CCNY / Fold change vs veh, CCNY / RFU, UFL1 / Fold change vs veh, UFL1 / RFU, COG3 / Fold change vs veh, COG3 / RFU, DIAPH2 / Fold change vs veh, DIAPH2 / RFU, SKA2 / Fold change vs veh, SKA2 / RFU, AFF3 / Fold change vs veh, AFF3 / RFU, LMF1 / Fold change vs veh, LMF1 / RFU, IPO11 / Fold change vs veh, IPO11 / RFU, DFFB / Fold change vs veh, DFFB / RFU, FOXP1 / Fold change vs veh, FOXP1 / RFU, CARD8 / Fold change vs veh, CARD8 / RFU, STRN3 / Fold change vs veh, STRN3 / RFU, ADK / Fold change vs veh, ADK / RFU, RASSF2 / Fold change vs veh, RASSF2 / RFU, WIPF1 / Fold change vs veh, WIPF1 / RFU, LARP1B / Fold change vs veh, LARP1B / RFU, RASA1 / Fold change vs veh, RASA1 / RFU, RB1 / Fold change vs veh, RB1 / RFU, PPFIA1 / Fold change vs veh, PPFIA1 / RFU, MAT2A / Fold change vs veh, MAT2A / RFU, CCT5 / Fold change vs veh, CCT5 / RFU, WDR92 / Fold change vs veh, WDR92 / RFU, CUX1 / Fold change vs veh, CUX1 / RFU, TTC7A / Fold change vs veh, TTC7A / RFU, TMEM135 / Fold change vs veh, TMEM135 / RFU, DEPTOR / Fold change vs veh, DEPTOR / RFU, CPM / Fold change vs veh, CPM / RFU, DNAJB6 / Fold change vs veh, DNAJB6 / RFU, CACNA2D3 / Fold change vs veh, CACNA2D3 / RFU, DTX4 / Fold change vs veh, DTX4 / RFU, TFCP2 / Fold change vs veh, TFCP2 / RFU, GMCL1 /// GMCL1P1 / Fold change vs veh, GMCL1 /// GMCL1P1 / RFU, AEBP2 / Fold change vs veh, AEBP2 / RFU, SNHG1 /// SNORD22 /// SNORD25 /// SNORD26 /// SNORD27 /// SNORD28 /// SNORD29 /// SNORD31 / Fold change vs veh, SNHG1 /// SNORD22 /// SNORD25 /// SNORD26 /// SNORD27 /// SNORD28 /// SNORD29 /// SNORD31 / Fold change (Aza/veh), C12orf56 (ProbeSet 11735607_a_at) / Fold change (ACY-1035/veh), C12orf56 (ProbeSet 11735607_a_at) / Fold change (Aza/veh), FGFR1OP (ProbeSet 11751329_s_at) / Fold change (ACY-1035/veh), FGFR1OP (ProbeSet 11751329_s_at) / Fold change (Aza/veh), VPS36 (ProbeSet 11739960_a_at) / Fold change (ACY-1035/veh), VPS36 (ProbeSet 11739960_a_at) / RFU SYPL1 (11715823_x_at) / Fold change /veh SYPL1 (11715823_x_at) / RFU IGFBP7 (11715501_s_at) / Fold change /veh IGFBP7 (11715501_s_at) / RFU REEP3 (11722064_at) / Fold change /veh REEP3 (11722064_at) / RFU IGLL1 (11728026_x_at) / Fold change /veh IGLL1 (11728026_x_at): dose or concentration left out as unconfirmed
# Conditions: MV-4-11 cells, 48 hours
compound,measurement,value
Nc1ncn([C@@H]2O[C@H](CO)[C@@H](O)[C@H]2O)c(=O)n1 [azacitidine],RFU TMPRSS4 (11748680_a_at),47.70 RFU
